Publication PMC9271885 (eBioMedicine, 2022)
“And” between values parts separate entries of the source, which are not always exact repeats. Identical values can stand only once. Like-named read-outs stand apart in the source and are kept apart here.

Experiment: Quantification of TIZ in plasma, lung and nasal turbinates of hamsters (HPLC-UV)
Format: in vivo, Syrian hamsters
Description: Quantification of TIZ in plasma and lung tissues was performed by high-performance liquid chromatography with UV detection method (Alliance 2695, Waters, USA) with a lower limit of quantification of 0.01µg/mL. The mobile phase consisted of 0.1% FA in water and 0.1% of FA in ACN (65:35, v/v). The chromatographic separation was achieved using an isocratic mode with an Xbridge BEH C18 2.5μm 4.6 × 100mm column. Peak area was quantified at 340nm using the Waters 2489 detector. TIZ was extracted by a simple protein precipitation method, using acetonitrile for plasma and ice-cold acetonitrile for clarified lung homogenates. Briefly, 200µL of samples matrix was added to 1000µL of acetonitrile solution containing the internal standard (thiopental), then vortexed for 2min followed by centrifugation for 10min at 4°C. The supernatant medium was evaporated under vacuum, then transferred to a 1.5mL Eppendorf tube. The dried residue was reconstituted with 100µl of ACN:water (50:50), vortexed for 30 seconds and centrifuged again for 10min at 4°C. The supernatant was transferred to an autosampler and 50µL was injected.
We used tissues from infected animals sacrificed at 3 dpi following multiple administration (animals from Figure 3); an additional group of uninfected animals treated with a single dose of 13.5mg was used as control. TIZ concentration in plasma and in lung was quantified at 1, 2 and 4 hours post treatment for the single dose analysis (group of 3 animals) and at 12 hours after the last administration for the multiple dose analysis (group of 6 animals).

[1] = multiple dose NTZ 500mg/kg/day BID oral, at 3 dpi, 12 h (trough), individual values
[2] = multiple dose NTZ 750mg/kg/day TID oral, at 3 dpi, 12 hours (trough), individual values
[3] = multiple dose, infected animals, nitazoxanide per os 500 mg/kg/day BID, 12h post-administration, individual animals
[4] = multiple dose, infected animals, nitazoxanide per os 750 mg/kg/day TID, 12h post-administration, individual animals
[5] = single dose nitazoxanide 13.5mg, uninfected animals, 1h post-administration, individual animals
[6] = single dose nitazoxanide 13.5mg, uninfected animals, 2h post-administration, individual animals
[7] = single dose nitazoxanide 13.5mg, uninfected animals, 4h post-administration, individual animals
[8] = single oral dose 13.5mg NTZ, uninfected hamsters, 1 h post-treatment, individual values
[9] = single oral dose 13.5mg NTZ, uninfected hamsters, 2 h post-treatment, individual values
[10] = single oral dose 13.5mg NTZ, uninfected hamsters, 4 h post-treatment, individual values

Compound: O=C(Nc1ncc([N+](=O)[O-])s1)c1ccccc1O [TIZ, tizoxanide]
- Kp at 12 h (Syrian, hamster, in vivo, 2.8 mg/kg/day TID, multiple dose, infected animals, nitazoxanide IN 2,8 mg/kg/day TID, 12h post-administration, individual animals, read-out: Lung to plasma ratio): 12.8
- concentration at 12 h (Syrian, hamster, in vivo, 2.8 mg/kg/day TID, multiple dose, infected animals, nitazoxanide IN 2,8 mg/kg/day TID, 12h post-administration, individual animals, read-out: Tizoxanide concentration in blood): 8 ng/mL
- concentration at 12 h (Syrian, hamster, in vivo, 2.8 mg/kg/day, multiple dose, infected animals, nitazoxanide IN 2,8 mg/kg/day TID, 12h post-administration, individual animals, read-out: Tizoxanide concentration in blood): 30 nM
- concentration at 12 h (Syrian, hamster, in vivo, 2.8 mg/kg/day, multiple dose, infected animals, nitazoxanide IN 2,8 mg/kg/day TID, 12h post-administration, individual animals, read-out: Tizoxanide concentration in lungs): 11.7 ng/mL and 40 nM
- concentration at 12 h (Syrian, hamster, in vivo, 750 mg/kg/day TID, multiple dose, infected animals, nitazoxanide per os 750 mg/kg/day TID, 12h post-administration, individual animals, read-out: Tizoxanide concentration in lungs): 40 nM
- Kp at 12 h (hamster, in vivo, 2.8 mg/kg/day, multiple dose NTZ 2.8mg/kg/day TID intranasal, at 3 dpi, 12 hours (trough), read-out: L/p ratio): 1280
- concentration at 12 h (hamster, in vivo, 2.8 mg/kg/day, multiple dose, infected animals, nitazoxanide IN 2,8 mg/kg/day TID, 12h post-administration, individual animals, read-out: Tizoxanide concentration in lungs): 103 ng/g
- concentration at 12 h (hamster, in vivo, 2.8 mg/kg/day, multiple dose, infected animals, nitazoxanide IN 2,8 mg/kg/day TID, 12h post-administration, individual animals, read-out: Tizoxanide concentration in nasal turbinates): 14.8 ng/mL and 60 nM
- Kp (hamster, in vivo, 13.5 mg, after single-dose administration (13.5mg NTZ), hamsters, read-out: lung/plasma ratio): 0.022 to 0.048
- concentration at 1 h (hamster, in vivo, 13.5 mg, single dose nitazoxanide 13.5mg, uninfected animals, 1h post-administration, individual animals, read-out: Tizoxanide concentration in lungs): 21.5 ng/mL and 80 nM and 161 ng/g
- Kp at 2 h (hamster, in vivo, 13.5 mg, single dose nitazoxanide 13.5mg, uninfected animals, 2h post-administration, individual animals, read-out: Lung to plasma ratio): 0.027
- concentration at 2 h (hamster, in vivo, 13.5 mg, single dose nitazoxanide 13.5mg, uninfected animals, 2h post-administration, individual animals, read-out: Tizoxanide concentration in lungs): 17.1 ng/mL and 60 nM and 132 ng/g
- Kp at 4 h (hamster, in vivo, 13.5 mg, single dose nitazoxanide 13.5mg, uninfected animals, 4h post-administration, individual animals, read-out: Lung to plasma ratio): 0.042
- concentration at 4 h (hamster, in vivo, 13.5 mg, single dose nitazoxanide 13.5mg, uninfected animals, 4h post-administration, individual animals, read-out: Tizoxanide concentration in lungs): 8.3 ng/mL and 30 nM and 61 ng/g
- concentration at 12 h (hamster, in vivo, 500 mg/kg/day BID, multiple dose NTZ 500mg/kg/day BID oral, infected hamsters at 3 dpi, 12 h after last dose (trough), mean ± SD, read-out: TIZ concentration Plasma): 940 ng/mL and 940 nM
- concentration at 12 h (hamster, in vivo, 500 mg/kg/day BID, multiple dose, infected animals, nitazoxanide per os 500 mg/kg/day BID, 12h post-administration, individual animals, read-out: Tizoxanide concentration in lungs): 8.1 ng/mL and 30 nM and 57 ng/g
- concentration at 12 h (hamster, in vivo, 750 mg/kg/day TID, multiple dose NTZ 750mg/kg/day TID oral, infected hamsters at 3 dpi, 12 hours after last dose (trough), mean ± SD, read-out: TIZ concentration Plasma): 1490 ng/mL and 1.49 µM
- concentration at 1 h (hamster, in vivo, po, 13.5 mg, single oral dose 13.5mg NTZ, uninfected hamsters, 1 h post-treatment, mean ± SD, read-out: TIZ concentration Plasma): 5160 ng/mL and 5.16 µM
- Kp at 2 h (hamster, in vivo, po, 13.5 mg, single oral dose 13.5mg NTZ, uninfected hamsters, 2 h post-treatment, individual values, read-out: L/p ratio (%)): 0.027
- concentration at 2 h (hamster, in vivo, po, 13.5 mg, single oral dose 13.5mg NTZ, uninfected hamsters, 2 h post-treatment, mean ± SD, read-out: TIZ concentration Plasma): 3390 ng/mL and 3.39 µM
- Kp at 4 h (hamster, in vivo, po, 13.5 mg, single oral dose 13.5mg NTZ, uninfected hamsters, 4 h post-treatment, individual values, read-out: L/p ratio (%)): 0.042
- concentration at 4 h (hamster, in vivo, po, 13.5 mg, single oral dose 13.5mg NTZ, uninfected hamsters, 4 h post-treatment, mean ± SD, read-out: TIZ concentration Plasma): 820 ng/mL and 820 nM
- TIZ concentration Lung (µM/g) (multiple dose NTZ 2.8mg/kg/day TID intranasal, at 3 dpi, 12 hours (trough), individual values): 0.39 µM/g and 0.41 µM/g
- L/p ratio (%) [1]: 2.7% and 32.8%
- TIZ concentration Lung (µM/g) [1]: 0.21 µM/g
- L/p ratio (%) [2]: 2.9% and 6.3%
- TIZ concentration Lung (µM/g) [2]: 0.28 µM/g and 0.60 µM/g
- Tizoxanide concentration in lungs (multiple dose, infected animals, nitazoxanide IN 2,8 mg/kg/day TID, 12h post-administration, individual animals): 0.39 µM/g of lung and 11.3 ng/mL and 110 ng/g of lung and 0.41 µM/g of lung
- Lung to plasma ratio [3]: 2.7% and 32.8%
- Tizoxanide concentration in blood [3]: 40 ng/mL and 159 ng/mL and 2131 ng/mL and 2192 ng/mL and 171 ng/mL
- Tizoxanide concentration in lungs [3]: 0.21 µM/g of lung and 10.6 ng/mL and 56 ng/g of lung
- concentration at 12 h (multiple dose, infected animals, nitazoxanide per os 500 mg/kg/day BID, 12h post-administration, individual animals, read-out: Tizoxanide concentration in blood): 150 nM and 600 nM and 8030 nM and 8260 nM and 640 nM
- concentration at 12 h (multiple dose, infected animals, nitazoxanide per os 500 mg/kg/day BID, 12h post-administration, individual animals, read-out: Tizoxanide concentration in lungs): 40 nM
- Lung to plasma ratio [4]: 2.9% and 6.3%
- Tizoxanide concentration in blood [4]: 40 ng/mL and 2494 ng/mL and 79 ng/mL and 2205 ng/mL and 1637 ng/mL and 2500 ng/mL
- Tizoxanide concentration in lungs [4]: 9.7 ng/mL and 73 ng/g of lung and 0.28 µM/g of lung and 21.0 ng/mL and 158 ng/g of lung and 0.60 µM/g of lung
- concentration at 12 h (multiple dose, infected animals, nitazoxanide per os 750 mg/kg/day TID, 12h post-administration, individual animals, read-out: Tizoxanide concentration in blood): 150 nM and 9400 nM and 300 nM and 8310 nM and 6170 nM and 9430 nM
- concentration at 12 h (multiple dose, infected animals, nitazoxanide per os 750 mg/kg/day TID, 12h post-administration, individual animals, read-out: Tizoxanide concentration in lungs): 80 nM
- Lung to plasma ratio [5]: 4.8% and 2.2%
- Tizoxanide concentration in blood [5]: 3319 ng/mL and 10008 ng/mL and 2151 ng/mL
- Tizoxanide concentration in lungs [5]: 0.61 µM/g of lung and 26.7 ng/mL and 224 ng/g of lung and 0.84 µM/g of lung
- concentration at 12 h (single dose nitazoxanide 13.5mg, uninfected animals, 1h post-administration, individual animals, read-out: Tizoxanide concentration in blood): 12510 nM and 37730 nM and 8110 nM
- concentration at 12 h (single dose nitazoxanide 13.5mg, uninfected animals, 1h post-administration, individual animals, read-out: Tizoxanide concentration in lungs): 100 nM
- Tizoxanide concentration in blood [6]: 1477 ng/mL and 3758 ng/mL and 4927 ng/mL
- Tizoxanide concentration in lungs [6]: 0.50 µM/g of lung
- concentration at 12 h (single dose nitazoxanide 13.5mg, uninfected animals, 2h post-administration, individual animals, read-out: Tizoxanide concentration in blood): 5570 nM and 14170 nM and 18580 nM
- Tizoxanide concentration in blood [7]: 344 ng/mL and 666 ng/mL and 1459 ng/mL
- Tizoxanide concentration in lungs [7]: 0.23 µM/g of lung
- concentration at 12 h (single dose nitazoxanide 13.5mg, uninfected animals, 4h post-administration, individual animals, read-out: Tizoxanide concentration in blood): 1300 nM and 2510 nM and 5500 nM
- L/p ratio (%) [8]: 4.8% and 2.2%
- TIZ concentration Lung [8]: 0.16 µg/g and 0.22 µg/g
- TIZ concentration Lung (µM/g) [8]: 0.61 µM/g and 0.84 µM/g
- TIZ concentration Lung [9]: 0.13 µg/g
- TIZ concentration Lung (µM/g) [9]: 0.50 µM/g
- TIZ concentration Lung [10]: 0.06 µg/g
- TIZ concentration Lung (µM/g) [10]: 0.23 µM/g
